Experimental findings from ChEMBL document CHEMBL1201862, “PubChem BioAssay data set” (2004) are described below.

Test systems include OVCAR-8; OVCAR-5; SNB-75; SK-MEL-5; T47D; K562; EKVX; Hs-578T; Malme-3M; OVCAR-3; HOP-62; HT-29; OVCAR-4; MCF7; UACC-62; HL-60; UO-31; TK-10; NCI-H522.
Holding throughout (assay): DTP human tumour cell line panel, 48 h

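Exposure lasted 48 hours, with cells grown in 96-well plates and compounds tested at five concentrations. GI50 marks 50% less growth.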 The source made the active and inactive calls. Cut-off read from the data, not from the text of the source: active = GI50 up to about 1.1 µM and inactive = higher.

The term GI50 denotes the concentration giving 50% growth inhibition. As for `c1ccc(CSc2nnc3c4ccccc4c4ccccc4c3n2)cc1`, the GI50 is 35.5 µM (inactive) in the assay with OVCAR-8; > 100 µM (inactive) in the assay with OVCAR-5; 8.73 µM (inactive) in the assay with SNB-75; > 100 µM (inactive) with SK-MEL-5; 34.1 µM (inactive) in the assay with T47D; 14.8 µM (inactive) in the assay on K562. Also, the GI50 is 27.2 µM (inactive) in the assay with EKVX; 36.2 µM (inactive) with Hs-578T; 86.1 µM (inactive) in the assay with Malme-3M; 21.7 µM (inactive) with OVCAR-3; 24.8 µM (inactive) in the assay on HOP-62; > 100 µM (inactive) in the assay on HT-29. Further, the GI50 with OVCAR-4 was 48.1 µM (inactive); in the assay with MCF7, 29.1 µM (inactive); with UACC-62, 46 µM (inactive); in the assay with HL-60, > 36.2 µM (inactive); with UO-31, > 57.7 µM (inactive); in the assay on TK-10 it was 26.9 µM (inactive). In addition, the GI50 in the assay on NCI-H522 is 33.2 µM (inactive).
For `COc1cc2c(/C=C3/C(=O)Nc4ccc(O)cc43)c(Cl)[nH]c2cc1C`, the GI50 with OVCAR-8 is 0.281 µM (active); in the assay on OVCAR-5, 0.618 µM (active); in the assay with SNB-75, 0.143 µM (active); in the assay with SK-MEL-5 it was 0.0822 µM (active); in the assay on T47D, 0.0462 µM (active); with K562, 0.0382 µM (active). For the same compound, the GI50 in the assay with EKVX is 0.679 µM (active); with Hs-578T, 0.0989 µM (active); in the assay with Malme-3M, 0.0398 µM (active); in the assay with OVCAR-3 it was 0.026 µM (active); in the assay with HOP-62 it was 0.127 µM (active); with HT-29, 0.149 µM (active). Further, the GI50 in the assay with OVCAR-4 was 0.562 µM (active); in the assay with MCF7, 0.0748 µM (active); in the assay with UACC-62, 0.0499 µM (active); in the assay with HL-60, 0.0343 µM (active); with UO-31, 0.728 µM (active); in the assay with TK-10 it was 0.398 µM (active). Moreover, in the assay on NCI-H522, the GI50 is 0.146 µM (active).
In the case of `O=C(c1ccsc1)c1nccc2c1cnc1ccccc12`, the GI50 with OVCAR-8 was > 100 µM (inactive); with OVCAR-5, 49.8 µM (inactive); in the assay with SNB-75, 30.5 µM (inactive); with SK-MEL-5, 36.2 µM (inactive); in the assay with T47D, > 100 µM (inactive); in the assay with EKVX, 15.6 µM (inactive). For the same compound, the GI50 with Hs-578T is 17 µM (inactive); with Malme-3M, 65.5 µM (inactive); in the assay on OVCAR-3, > 100 µM (inactive); in the assay with HOP-62, 25.5 µM (inactive); with HT-29, > 100 µM (inactive); in the assay with OVCAR-4 it was 94.8 µM (inactive). Moreover, the GI50 is 47.2 µM (inactive) in the assay on MCF7; 65.6 µM (inactive) in the assay on UACC-62; 2.47 µM (inactive) with HL-60; 6.55 µM (inactive) in the assay on UO-31; 42.6 µM (inactive) in the assay with TK-10; 12.7 µM (inactive) in the assay on NCI-H522.
Take `NC(CC(=O)O)(Cc1ccccc1)C(=O)O` (stereo unspecified): the GI50 in the assay on OVCAR-8, with OVCAR-5, with SNB-75, in the assay on SK-MEL-5, in the assay with T47D and in the assay on K562 was > 100 µM (inactive) each time. The GI50 with EKVX, in the assay with Hs-578T, in the assay with Malme-3M, in the assay with OVCAR-3, in the assay with HOP-62 and in the assay with HT-29 was > 100 µM (inactive) throughout. Further, the GI50 in the assay with OVCAR-4, in the assay with MCF7, in the assay on UACC-62, in the assay on HL-60, with UO-31 and in the assay with TK-10 was > 100 µM (inactive) in each case. The GI50 with NCI-H522 was > 100 µM (inactive).
On to `CCOP(=O)(OCC)/C(F)=C/c1ccccc1`, for which the GI50 with OVCAR-8, in the assay with OVCAR-5, in the assay with SNB-75, with SK-MEL-5, in the assay with T47D and in the assay on K562 was > 100 µM (inactive) throughout. Further, the GI50 with EKVX, in the assay on Hs-578T, in the assay with Malme-3M, in the assay on OVCAR-3, in the assay on HOP-62 and with HT-29 was > 100 µM (inactive) each time. Besides, the GI50 in the assay on OVCAR-4 is > 100 µM (inactive); in the assay with MCF7, > 100 µM (inactive); in the assay with UACC-62 it was > 100 µM (inactive); in the assay with HL-60, > 100 µM (inactive); with UO-31 it was 95.9 µM (inactive); in the assay on TK-10 it was > 100 µM (inactive). Moreover, in the assay on NCI-H522, the GI50 was > 100 µM (inactive).
In the case of `Cc1nc(-c2ccc(Cl)cc2)cn2c1nc1ccccc12`, the GI50 was > 100 µM (inactive) in the assay with OVCAR-8; > 31 µM (inactive) in the assay on OVCAR-5; > 100 µM (inactive) with SNB-75; 5.14 µM (inactive) in the assay on SK-MEL-5; 0.955 µM (active) with T47D; > 72.3 µM (inactive) with K562. For the same compound, the GI50 with EKVX was > 100 µM (inactive); with Hs-578T, > 100 µM (inactive); in the assay with Malme-3M, > 100 µM (inactive); with OVCAR-3, > 100 µM (inactive); with HOP-62 it was > 100 µM (inactive); in the assay on HT-29, 99.1 µM (inactive). The GI50 in the assay on OVCAR-4 was > 100 µM (inactive); in the assay with MCF7, 0.647 µM (active); in the assay with UACC-62, > 100 µM (inactive); in the assay on HL-60 it was > 31.6 µM (inactive); in the assay with TK-10, > 100 µM (inactive); in the assay with NCI-H522, > 100 µM (inactive).
Consider `CCSC1=CC(=O)c2nc3ccccc3c3ccnc1c23`, for which the GI50 in the assay with OVCAR-8 was 2.57 µM (inactive); in the assay on OVCAR-5, 3.85 µM (inactive); in the assay on SNB-75, 6.43 µM (inactive); in the assay with T47D, 11.2 µM (inactive); with K562, 1.35 µM (inactive); in the assay with EKVX it was 2.58 µM (inactive). Besides, the GI50 in the assay on Hs-578T is 3.14 µM (inactive); in the assay with Malme-3M, 1.67 µM (inactive); in the assay with OVCAR-3, 2.56 µM (inactive); in the assay on HOP-62, 18.4 µM (inactive); in the assay with HT-29, 3.82 µM (inactive); in the assay on OVCAR-4, 2.69 µM (inactive). In addition, the GI50 was 1.88 µM (inactive) with MCF7; 2.05 µM (inactive) in the assay with UACC-62; 2.06 µM (inactive) with HL-60; 5.22 µM (inactive) with UO-31; 12.1 µM (inactive) in the assay with TK-10; 1.45 µM (inactive) in the assay with NCI-H522.
Consider `N#Cc1c(C#N)c(-c2cccc([N+](=O)[O-])c2)n(-c2ccccc2)c1N`, for which the GI50 with OVCAR-8 is 99.3 µM (inactive); with OVCAR-5, > 100 µM (inactive); with SNB-75 it was 3.33 µM (inactive); in the assay with SK-MEL-5 it was > 100 µM (inactive); in the assay with T47D it was > 100 µM (inactive); in the assay on K562, > 100 µM (inactive). Also, the GI50 is > 100 µM (inactive) in the assay with EKVX; 55.1 µM (inactive) with Hs-578T; > 100 µM (inactive) in the assay on Malme-3M; > 100 µM (inactive) with OVCAR-3; 49.4 µM (inactive) in the assay with HOP-62; > 100 µM (inactive) in the assay with HT-29. Further, the GI50 was 11.5 µM (inactive) in the assay on OVCAR-4; > 100 µM (inactive) in the assay on MCF7; 66.1 µM (inactive) with UACC-62; > 100 µM (inactive) in the assay with HL-60; > 100 µM (inactive) in the assay with UO-31; > 100 µM (inactive) in the assay on TK-10. The GI50 in the assay with NCI-H522 was > 100 µM (inactive).
Regarding `CC(=O)NNc1nc(C)c(C(/C=C/c2cccc([N+](=O)[O-])c2)=N/NC(=S)NN)s1`, the GI50 in the assay on OVCAR-8, in the assay with OVCAR-5, in the assay on SNB-75, with SK-MEL-5, in the assay with T47D and in the assay with K562 was > 100 µM (inactive) each time. Also, the GI50 in the assay on EKVX was 52.1 µM (inactive); with Hs-578T it was > 100 µM (inactive); with Malme-3M, > 100 µM (inactive); with OVCAR-3, > 100 µM (inactive); in the assay with HOP-62, 91 µM (inactive); with HT-29, > 100 µM (inactive). Also, the GI50 in the assay on OVCAR-4, in the assay on MCF7, with UACC-62, with HL-60, with UO-31 and with TK-10 was > 100 µM (inactive) throughout. Moreover, in the assay with NCI-H522, the GI50 was > 100 µM (inactive).
With `O=C1CCCNn2c(nc3ncccc3c2=O)N1`, the GI50 with OVCAR-8 was > 100 µM (inactive); in the assay on OVCAR-5 it was > 100 µM (inactive); with SNB-75 it was 30.2 µM (inactive); with SK-MEL-5 it was > 100 µM (inactive); in the assay with T47D it was > 100 µM (inactive); in the assay with K562 it was > 100 µM (inactive). Also, the GI50 in the assay with EKVX, in the assay on Hs-578T, in the assay with Malme-3M, with OVCAR-3, in the assay on HOP-62 and in the assay with HT-29 was > 100 µM (inactive) each time. The GI50 in the assay with OVCAR-4, with MCF7, in the assay with UACC-62, in the assay with HL-60, in the assay on UO-31 and in the assay with TK-10 was > 100 µM (inactive) throughout. Further, in the assay on NCI-H522, the GI50 is > 100 µM (inactive).
As to `O=C(O)CP(=O)(O)O`, the GI50 in the assay on OVCAR-8, with OVCAR-5, in the assay on SNB-75, in the assay with SK-MEL-5, in the assay on T47D and in the assay with K562 was > 100 µM (inactive) each time. Also, the GI50 with EKVX, with Hs-578T, in the assay on Malme-3M, in the assay with OVCAR-3, in the assay with HOP-62 and with HT-29 was > 100 µM (inactive) throughout. Further, the GI50 in the assay with OVCAR-4, with MCF7, in the assay on UACC-62, in the assay on HL-60, with UO-31 and in the assay with TK-10 was > 100 µM (inactive) throughout. In the assay with NCI-H522, the GI50 is > 100 µM (inactive).
